Series [1] concerns the target Adenosine receptor A2a (Homo sapiens, UniProt P29274). The series can be described thus: Displacement of [3H]ZM-241385 from human adenosine A2A receptor expressed in HEK293 cells. The class given is cell-based.
Another series is filed under the species Homo sapiens. The series can be described thus: Selectivity for human adenosine A2A receptor over human adenosine A1 receptor.
The nature of series [2]: Metabolic stability in human liver microsomes assessed as intrinsic clearance. The class given is ADME, Microsome.
Series [3] concerns the target Adenosine receptor A2a (Rattus norvegicus, UniProt P30543). In words: Activity at adenosine A2A receptor in rat PC12 cells assessed as intracellular cAMP accumulation. The class given is functional, cell-based, PC-12.
Series [4] can be described thus: Aqueous solubility at pH 8.0 by HPLC. The class given is physicochemical.
The next series has as its target Cytochrome P450 3A4 (Homo sapiens, UniProt P08684). In words: Inhibition of CYP3A4. The class given is ADME.
The next series has as its target Cytochrome P450 2D6 (Homo sapiens, UniProt P10635). The series can be described thus: Inhibition of CYP2D6. The class given is ADME.
Series [5] deals with Rattus norvegicus. In words: Inhibition of haloperidol-induced catalepsy in rat at 30 mg/kg, po. The class given is functional, organism-based. The arrangement: dose 30 mg/kg.
The subject of series [6] is Rattus norvegicus. The series can be described thus: Inhibition of haloperidol-induced catalepsy in po dosed rat. In kind it is functional. To be noted: read-out: MED.

Active and inactive are the calls of the source. The rule behind the calls is not given here.

Sequence of Adenosine receptor A2a (Rattus norvegicus, UniProt P30543) (P30543 whole entry): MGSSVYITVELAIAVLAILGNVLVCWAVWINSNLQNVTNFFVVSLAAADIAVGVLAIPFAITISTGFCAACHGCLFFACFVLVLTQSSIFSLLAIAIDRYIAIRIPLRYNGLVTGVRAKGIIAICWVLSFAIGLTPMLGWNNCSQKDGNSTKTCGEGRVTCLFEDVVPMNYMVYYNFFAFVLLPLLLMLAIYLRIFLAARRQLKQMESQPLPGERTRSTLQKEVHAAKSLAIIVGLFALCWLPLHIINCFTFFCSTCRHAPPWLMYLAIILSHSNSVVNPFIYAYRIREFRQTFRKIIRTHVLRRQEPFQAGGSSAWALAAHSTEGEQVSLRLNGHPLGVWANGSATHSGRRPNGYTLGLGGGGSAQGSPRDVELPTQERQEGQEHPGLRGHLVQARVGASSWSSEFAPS
Sequence of Adenosine receptor A2a (Homo sapiens, UniProt P29274) (P29274 whole entry): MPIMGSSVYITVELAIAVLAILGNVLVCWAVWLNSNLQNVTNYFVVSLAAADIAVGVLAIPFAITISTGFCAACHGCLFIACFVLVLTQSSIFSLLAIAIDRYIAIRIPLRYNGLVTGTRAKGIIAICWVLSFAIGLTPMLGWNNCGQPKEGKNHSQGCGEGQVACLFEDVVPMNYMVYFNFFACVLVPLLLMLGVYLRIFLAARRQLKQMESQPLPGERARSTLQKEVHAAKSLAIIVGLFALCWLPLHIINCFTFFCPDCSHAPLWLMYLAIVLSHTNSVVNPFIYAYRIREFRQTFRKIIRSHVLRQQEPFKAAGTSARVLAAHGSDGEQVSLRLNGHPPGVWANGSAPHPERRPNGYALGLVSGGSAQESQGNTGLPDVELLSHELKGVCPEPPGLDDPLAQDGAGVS
Sequence of Cytochrome P450 3A4 (P08684 whole entry): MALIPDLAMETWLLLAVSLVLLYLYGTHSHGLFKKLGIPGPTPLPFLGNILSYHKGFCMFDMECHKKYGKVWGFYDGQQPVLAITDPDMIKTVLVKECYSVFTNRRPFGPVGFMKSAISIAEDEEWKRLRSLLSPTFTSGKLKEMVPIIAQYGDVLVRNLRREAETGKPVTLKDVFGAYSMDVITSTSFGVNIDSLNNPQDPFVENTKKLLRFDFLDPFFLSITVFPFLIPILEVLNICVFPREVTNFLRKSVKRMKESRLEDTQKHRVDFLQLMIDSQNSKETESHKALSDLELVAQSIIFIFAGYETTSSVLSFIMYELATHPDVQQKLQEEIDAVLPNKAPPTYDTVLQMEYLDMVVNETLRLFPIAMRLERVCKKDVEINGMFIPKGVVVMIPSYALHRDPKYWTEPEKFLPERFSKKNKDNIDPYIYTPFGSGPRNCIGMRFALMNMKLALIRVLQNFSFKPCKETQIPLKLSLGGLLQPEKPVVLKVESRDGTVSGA
Sequence of Cytochrome P450 2D6 (P10635 whole entry): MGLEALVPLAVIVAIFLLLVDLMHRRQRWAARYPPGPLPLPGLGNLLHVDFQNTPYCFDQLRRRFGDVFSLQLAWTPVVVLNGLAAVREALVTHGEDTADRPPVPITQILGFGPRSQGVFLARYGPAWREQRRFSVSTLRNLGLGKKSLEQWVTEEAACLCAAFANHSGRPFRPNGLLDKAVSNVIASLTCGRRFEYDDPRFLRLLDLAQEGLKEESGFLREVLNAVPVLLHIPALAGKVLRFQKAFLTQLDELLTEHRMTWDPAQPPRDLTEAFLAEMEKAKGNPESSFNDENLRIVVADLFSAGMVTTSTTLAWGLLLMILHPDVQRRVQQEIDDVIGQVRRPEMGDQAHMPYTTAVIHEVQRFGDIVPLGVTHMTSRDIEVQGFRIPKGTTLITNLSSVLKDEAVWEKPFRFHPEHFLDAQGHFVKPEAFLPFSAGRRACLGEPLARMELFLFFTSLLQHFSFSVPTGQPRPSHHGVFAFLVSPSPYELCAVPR

For `CC(=O)Nc1cc(-c2cccc(C(F)(F)F)c2)nc(-n2nc(C)cc2C)n1`, the affinity at Adenosine receptor A2a [1], expressed as Ki, was 2 nM. The Ratio Ki in the series filed under Homo sapiens was found to be 40.

`CC(=O)Nc1cc(-c2cccc(C)c2)nc(-n2nc(C)cc2C)n1`: affinity at Adenosine receptor A2a [1] was put at a Ki of 7 nM. The Ratio Ki in the series filed under Homo sapiens was 59.

Compound `CC(=O)Nc1cc(-c2cc(C)ccc2C)nc(-n2nc(C)cc2C)n1` gave a Ki at Adenosine receptor A2a [1] of 19 nM. The Ratio Ki in the series filed under Homo sapiens was found to be 46.

As to `CC(=O)Nc1cc(-c2cccc(CC#N)c2)nc(-n2nc(C)cc2C)n1`, the Ki at Adenosine receptor A2a [1] is 2 nM. For the same compound, the Ratio Ki in the series listed under Homo sapiens came to 50.

`CC(=O)Nc1cc(-c2ccccc2)nc(-n2nc(C)cc2C)n1`: the Ki on Adenosine receptor A2a [1] is 87 nM. Further, the Ratio Ki in the series filed under Homo sapiens came to 7.

In turn, `CC(=O)Nc1cc(-c2cc(F)cc(O[C@@H]3CCN(C)C3)c2)nc(-n2nc(C)cc2C)n1` showed a Ki on Adenosine receptor A2a [1] of 2 nM. Also, the Ratio Ki in the series listed under Homo sapiens stood at 125. In [2], the CLint scaled was 3 mL/min/kg.

`COc1ccc(-c2cc(NC(C)=O)nc(-n3nc(C)cc3C)n2)cc1` registered an inhibition constant (Ki) on Adenosine receptor A2a [1] of 17 nM. The Ratio Ki in the series filed under Homo sapiens was found to be 44.

On Adenosine receptor A2a [1], `CC(=O)Nc1cc(-c2cccc(CO[C@H]3CCN(C)C3)c2)nc(-n2nc(C)cc2C)n1` returned a Ki of 73 nM. Besides, the Ratio Ki in the series filed under Homo sapiens turned out to be 102.

Regarding `CC(=O)Nc1cc(-c2cccc(OC3CCN(C)C3)c2)nc(-n2nc(C)cc2C)n1` (centres undefined), the IC50 at Adenosine receptor A2a [3] turned out to be 42 nM. The compound further displayed a solubility in series [4] of more than 4000 µg/mL. Moreover, the inhibition constant Ki on Adenosine receptor A2a [1] amounted to 2 nM. For the same compound, the Ratio Ki in the series listed under Homo sapiens stood at 191. Further, in series [2], the CLint scaled amounted to 54 mL/min/kg.

At Adenosine receptor A2a [1], `COc1ccccc1-c1cc(NC(C)=O)nc(-n2nc(C)cc2C)n1` returned a Ki of 2 nM. The Ratio Ki in the series listed under Homo sapiens stood at 71.

`CC(=O)Nc1cc(-c2cc(F)cc(F)c2)nc(-n2nc(C)cc2C)n1`: the affinity at Adenosine receptor A2a [1] corresponds to a Ki of 4 nM. Also, the Ratio Ki in the series filed under Homo sapiens came out at 64.

The compound `CC(=O)Nc1cc(-c2cc(C)cc(C)c2)nc(-n2nc(C)cc2C)n1` returned a Ki on Adenosine receptor A2a [1] of 8 nM. Moreover, the Ratio Ki in the series filed under Homo sapiens was determined as 43.

Take `CC(=O)Nc1cc(-c2cccc(O[C@H]3CCN(C)C3)c2)nc(-n2nc(C)cc2C)n1`: affinity at Adenosine receptor A2a [1] was put at a Ki of 2 nM. Moreover, in the series listed under Homo sapiens, the Ratio Ki amounted to 320.

As to `CC(=O)Nc1cc(-c2cccc(C#N)c2)nc(-n2nc(C)cc2C)n1`, the Ki on Adenosine receptor A2a [1] came to 2 nM. The Ratio Ki in the series filed under Homo sapiens worked out at 10.

`COc1c(F)cccc1-c1cc(NC(C)=O)nc(-n2nc(C)cc2C)n1` returned a solubility in series [4] of less than 100 µg/mL. For the same compound, the Ki on Adenosine receptor A2a [1] worked out at 3 nM. The Ratio Ki in the series listed under Homo sapiens worked out at 164.

Consider `CN1CCN(CC(=O)Nc2cc(-n3cccn3)nc(-c3ccco3)n2)CC1`, for which, on Adenosine receptor A2a [1], the Ki stood at 3 nM.

As for `CC(=O)Nc1cc(-c2cccc(O)c2)nc(-n2nc(C)cc2C)n1`, at Adenosine receptor A2a [1], the affinity, expressed as Ki, was 2 nM. The Ratio Ki in the series listed under Homo sapiens amounted to 74.

For `CC(=O)Nc1cc(-c2cccc(OCCN(C)C)c2)nc(-n2nc(C)cc2C)n1`, the solubility in series [4] was more than 4000 µg/mL. The compound also returned a Ki on Adenosine receptor A2a [1] of 5 nM. The Ratio Ki in the series listed under Homo sapiens amounted to 134.

Turning to `COc1cccc(-c2cc(NC(C)=O)nc(-n3nc(C)cc3C)n2)c1`, affinity on Adenosine receptor A2a [1] was put at a Ki of 1 nM. Further, the Ratio Ki in the series filed under Homo sapiens amounted to 72.

Regarding `CC(=O)Nc1cc(-c2cc(F)cc(OC3CCN(C)C3)c2)nc(-n2nc(C)cc2C)n1` (centres undefined), the Ki at Adenosine receptor A2a [1] turned out to be 1 nM. Further, the Ratio Ki in the series filed under Homo sapiens is 135. In series [2], the CLint scaled was 3 mL/min/kg.

Compound `CC(=O)Nc1cc(-c2cccc(OC3CCN(C(C)C)C3)c2)nc(-n2nc(C)cc2C)n1` (centres undefined) showed a Ki at Adenosine receptor A2a [1] of 3 nM. Also, in the series listed under Homo sapiens, the Ratio Ki was found to be 167.

Regarding `CCN1CCC(Oc2cccc(-c3cc(NC(C)=O)nc(-n4nc(C)cc4C)n3)c2)C1` (centres undefined), affinity on Adenosine receptor A2a [1] was put at a Ki of 3 nM. The Ratio Ki in the series listed under Homo sapiens is 168.

With `CC(=O)Nc1cc(-c2cc(F)cc(O[C@H]3CCN(C)C3)c2)nc(-n2nc(C)cc2C)n1`, the IC50 at Adenosine receptor A2a [3] worked out at 15 nM. In series [4], this compound gave a solubility of more than 4000 µg/mL. Moreover, the Activity result at Cytochrome P450 3A4 and on Cytochrome P450 2D6 was “Not Active” throughout. Further, at Adenosine receptor A2a [1], the affinity corresponds to a Ki of 1 nM. In the series filed under Homo sapiens, the Ratio Ki was found to be 218. Besides, in series [2], the CLint scaled was 3 mL/min/kg. Also, in the series with Rattus norvegicus [5], the outcome was Active.

Consider `CC(=O)Nc1cc(-c2cccc(OC3CCN(C)CC3)c2)nc(-n2nc(C)cc2C)n1`, for which the affinity at Adenosine receptor A2a [1], expressed as Ki, was 6 nM. In addition, the Ratio Ki in the series filed under Homo sapiens amounted to 146.

For the compound `COc1cc(OC)cc(-c2cc(NC(C)=O)nc(-n3nc(C)cc3C)n2)c1`, in the series with Rattus norvegicus [6], the minimal effective dose came to 1 mg/kg. Further, the IC50 at Adenosine receptor A2a [3] is 29 nM. This compound also came in with a solubility in series [4] of less than 100 µg/mL. Also, on Cytochrome P450 3A4 (TDE = time-dependent effect), the Activity result is listed as “tde”. Also, at Adenosine receptor A2a [1], the Ki came to 0.2 nM. In the series filed under Homo sapiens, the Ratio Ki is 111.

For `CC(=O)Nc1cc(-c2cccc(CO[C@@H]3CCN(C)C3)c2)nc(-n2nc(C)cc2C)n1`, the Ki on Adenosine receptor A2a [1] amounted to 67 nM. In addition, the Ratio Ki in the series listed under Homo sapiens is 99.

The compound `CC(=O)Nc1cc(-c2cccc(O[C@@H]3CCN(C)C3)c2)nc(-n2nc(C)cc2C)n1` returned a Ki at Adenosine receptor A2a [1] of 4 nM. In the series listed under Homo sapiens, the Ratio Ki came out at 145.

For `CC(=O)Nc1cc(-c2cccc(OC3CCCN(C)C3)c2)nc(-n2nc(C)cc2C)n1` (centres undefined), the affinity at Adenosine receptor A2a [1] corresponds to a Ki of 1 nM. For the same compound, the Ratio Ki in the series filed under Homo sapiens was found to be 203.

For `CC(=O)Nc1cc(-c2cc(O)cc(F)c2)nc(-n2nc(C)cc2C)n1`, the affinity on Adenosine receptor A2a [1] corresponds to a Ki of 2 nM. For the same compound, the Ratio Ki in the series filed under Homo sapiens turned out to be 54.

The values above are taken from ChEMBL document CHEMBL1152249, “2,6-Diaryl-4-acylaminopyrimidines as potent and selective adenosine A(2A) antagonists with improved solubility and metabolic stability” (Bioorg Med Chem Lett, 2008).
